According to US4650801A, “Anti-cancer compositions for delivering 5-fluorouracil” (Taiho Pharmaceutical Company, Ltd., priority 1978, dated 1987):
Several values for one entry are separate records, joined by “and”; a condition that tells them apart may be missing. Equal values may be shown once. Read-outs that look alike come from different tables or passages of the source.

Legend:
[1] = tested on: AH 130 tumor; settings: rat, in vivo
Protocol: ^3H-FT- 207(300 μ Ci/Kg) with cytosine were suspended in 5% acasia solution and administered orally to AH 130 bearing rats through a stomach tube, each of 3 rats/group. […] The rat were sacrified at various periods, the tumors were removed and used for analysis. Tumor were homogenized in a equal volume of saline, 1.0 ml of each sample was suspended in 7 volumes of cold methanol and centrifuged at 3000 rpm for 10 min. The precipitate was washed twice with 2 volumes of cold methanol and the mixture was centrifuged. The supernatant was combined with first supernatant and dried under nitrogen. […] Samples were mixed with 10 ml of scintillator containing 4 g of 2,5-diphenyloxazole, 0.4 g of 1,4-bis-[2-(4-methyl-5-phenyloxazolyl)]benzene and 100 g of naphthalene per liter of solvent composed of dioxane: toluene: ethylcellosolve=15:3:2 (v/v/v), and the radio activity was measured with Aloka LSC 673 liquid scintillation spectrometor.

[2] = tested on: sarcoma 180; experiment: Anti-cancer effect on subcutaneously transplanted sarcoma 180 in mice; format: in vivo, mouse
Protocol: The anti-cancer compositions of this invention are tested in mice by the following methods to determine acute toxicity, anti-cancer effect and therapeutic index
Tissues of sarcoma 180, 2×10^6, are subcutaneously transplanted in the back of male mice of ICR strain (6 mice in each group). A 5-fluorouracil (a) and uracil derivative (b) in the proportions listed in Tables 1-16 are suspended in a 5% solution of gum arabic to prepare a suspension. Twenty-four hours after the transplantation and during the following seven consecutive days the suspension is orally given to the animal once every day. On the 10th day after the transplantation, the tumor is removed from the body and weighed to calculate the average weight (T) of the tumors in the group to which the composition has been given and the corresponding weight (C) in the control group to determine the ratio T/C.

[3] = oral anti-cancer agent; cited from earlier work
[4] = cited from earlier work

For `Nc1ccn([C@H]2C[C@H](O)[C@@H](CO)O2)c(=O)n1` [2'-Deoxycytidine], the “Concentration of 5-FU in cancer tissues” value ([1]; 60 min) was 0 ng/mL, the “Concentration of 5-FU in cancer tissues” value ([1]; 120 min) was 0 ng/mL and the “Concentration of 5-FU in cancer tissues” value ([1]; 240 min) was 0 ng/mL. For the same compound, the “Concentration of 5-FU in cancer tissues” value ([1]; 480 min) was 0 ng/mL.
For `O=c1[nH]c(=O)n(C2CCCO2)cc1F` (stereo not drawn) [Compound 5, 1-(2-Tetrahydrofuryl)-5-fluorouracil], the ED50 ([2]; (b) = 1(2-Tetrahydrofuryl)uracil, (b)/(a) mol ratio 1) was 99 mg/kg, the ED50 ([2]; (b) = 1(2-Tetrahydrofuryl)uracil, (b)/(a) mol ratio 2) was 38 mg/kg and the ED50 ([2]; (b) = 1(2-Tetrahydrofuryl)uracil, (b)/(a) mol ratio 10) was 34 mg/kg. For the same compound, the ED50 ([2]; (b) = 1Acetyluracil, (b)/(a) mol ratio 1) was 49 mg/kg, the ED50 ([2]; (b) = 1Acetyluracil, (b)/(a) mol ratio 2) was 31 mg/kg and the ED50 ([2]; (b) = 1Acetyluracil, (b)/(a) mol ratio 5) was 16 mg/kg. The ED50 ([2]; (b) = 1Cyclohexylcarbamoyluracil, (b)/(a) mol ratio 0.5) was 113 mg/kg, the ED50 ([2]; (b) = 1Cyclohexylcarbamoyluracil, (b)/(a) mol ratio 2) was 55 mg/kg and the ED50 ([2]; (b) = 1Cyclohexylcarbamoyluracil, (b)/(a) mol ratio 5) was 36 mg/kg. It also gave an ED50 ([2]; (b) = 1n-Hexylcarbamoyluracil, (b)/(a) mol ratio 0.5) of 112 mg/kg, an ED50 ([2]; (b) = 1n-Hexylcarbamoyluracil, (b)/(a) mol ratio 2) of 52 mg/kg and an ED50 ([2]; (b) = 1n-Hexylcarbamoyluracil, (b)/(a) mol ratio 10) of 43 mg/kg. For the same compound, the ED50 ([2]; (b) = 2'-Deoxycytidine, (b)/(a) mol ratio 1) was 102 mg/kg, the ED50 ([2]; (b) = 2'-Deoxycytidine, (b)/(a) mol ratio 2) was 69 mg/kg and the ED50 ([2]; (b) = 2'-Deoxycytidine, (b)/(a) mol ratio 20) was 39 mg/kg. For the same compound, the ED50 ([2]; (b) = 2'-Deoxyuridine, (b)/(a) mol ratio 0.5) was 82 mg/kg, the ED50 ([2]; (b) = 2'-Deoxyuridine, (b)/(a) mol ratio 2) was 37 mg/kg and the ED50 ([2]; (b) = 2'-Deoxyuridine, (b)/(a) mol ratio 10) was 28 mg/kg. For the same compound, the ED50 ([2]; (b) = 3Benzoyluracil, (b)/(a) mol ratio 1) was 98 mg/kg, the ED50 ([2]; (b) = 3Benzoyluracil, (b)/(a) mol ratio 2) was 37 mg/kg and the ED50 ([2]; (b) = 3Benzoyluracil, (b)/(a) mol ratio 10) was 30 mg/kg. The ED50 ([2]; (b) = 5Bromo-2'-deoxyuridine, (b)/(a) mol ratio 1) was 54 mg/kg, the ED50 ([2]; (b) = 5Bromo-2'-deoxyuridine, (b)/(a) mol ratio 2) was 24 mg/kg and the ED50 ([2]; (b) = 5Bromo-2'-deoxyuridine, (b)/(a) mol ratio 10) was 17 mg/kg. It also gave an ED50 ([2]; (b) = 5Bromouracil, (b)/(a) mol ratio 1) of 55 mg/kg, an ED50 ([2]; (b) = 5Bromouracil, (b)/(a) mol ratio 2) of 26 mg/kg and an ED50 ([2]; (b) = 5Bromouracil, (b)/(a) mol ratio 10) of 23 mg/kg. It also gave an ED50 ([2]; (b) = 5Iodouracil, (b)/(a) mol ratio 1) of 32 mg/kg, an ED50 ([2]; (b) = 5Iodouracil, (b)/(a) mol ratio 2) of 17 mg/kg and an ED50 ([2]; (b) = 5Iodouracil, (b)/(a) mol ratio 5) of 12 mg/kg. The ED50 ([2]; (b) = Cytidine, (b)/(a) mol ratio 1) was 98 mg/kg, the ED50 ([2]; (b) = Cytidine, (b)/(a) mol ratio 2) was 70 mg/kg and the ED50 ([2]; (b) = Cytidine, (b)/(a) mol ratio 20) was 28 mg/kg. It also gave an ED50 ([2]; (b) = Cytosine, (b)/(a) mol ratio 1) of 108 mg/kg, an ED50 ([2]; (b) = Cytosine, (b)/(a) mol ratio 2) of 66 mg/kg and an ED50 ([2]; (b) = Cytosine, (b)/(a) mol ratio 20) of 27 mg/kg. The ED50 ([2]; (b) = Orotic acid, (b)/(a) mol ratio 1) was 112 mg/kg, the ED50 ([2]; (b) = Orotic acid, (b)/(a) mol ratio 2) was 72 mg/kg and the ED50 ([2]; (b) = Orotic acid, (b)/(a) mol ratio 20) was 59 mg/kg. It also gave an ED50 ([2]; (b) = Thymidine, (b)/(a) mol ratio 2) of 94 mg/kg, an ED50 ([2]; (b) = Thymidine, (b)/(a) mol ratio 5) of 42 mg/kg and an ED50 ([2]; (b) = Thymidine, (b)/(a) mol ratio 10) of 40 mg/kg. For the same compound, the ED50 ([2]; (b) = Thymine, (b)/(a) mol ratio 1) was 42 mg/kg, the ED50 ([2]; (b) = Thymine, (b)/(a) mol ratio 2) was 28 mg/kg and the ED50 ([2]; (b) = Thymine, (b)/(a) mol ratio 10) was 14 mg/kg. It also gave an ED50 ([2]; (b) = Uridine, (b)/(a) mol ratio 0.5) of 129 mg/kg, an ED50 ([2]; (b) = Uridine, (b)/(a) mol ratio 2) of 55 mg/kg and an ED50 ([2]; (b) = Uridine, (b)/(a) mol ratio 10) of 36 mg/kg. The ED50 ([2]; (b)/(a) mol ratio 0 (alone), oral, 50% cancer inhibition (T/C)) was 140 mg/kg and 134 mg/kg, the “efficacy compared with 5-fluorouracil” value [3] was “somewhat inferior to 5-fluorouracil in efficacy” and the “conversion to 5-fluorouracil in vivo” value [4] was “slowly converted to 5-fluorouracil in vivo”.
With `Nc1cc[nH]c(=O)n1` [Cytosine] the “Concentration of 5-FU in cancer tissues” value ([1]; 60 min) was 0 ng/mL, the “Concentration of 5-FU in cancer tissues” value ([1]; 120 min) was 0 ng/mL and the “Concentration of 5-FU in cancer tissues” value ([1]; 240 min) was 0 ng/mL. The “Concentration of 5-FU in cancer tissues” value ([1]; 480 min) was 0 ng/mL.
With `O=c1c(F)cn(C2CCCO2)c(=O)n1C1CCCO1` (stereo not drawn) [FD-1] the “Concentration of 5-FU in cancer tissues” value ([1]; 60 min) was 33 ng/mL, the “Concentration of 5-FU in cancer tissues” value ([1]; 120 min) was 24 ng/mL and the “Concentration of 5-FU in cancer tissues” value ([1]; 240 min) was 11 ng/mL. The “Concentration of 5-FU in cancer tissues” value ([1]; 480 min) was 8 ng/mL.
